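Method: 48-hour compound exposure of cells in 96-well plates, five concentrations, linear interpolation of endpoints. GI50 = concentration required for 50% inhibition of growth. The concentration for full growth arrest is given as TGI.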
Tests used:
Assay in all cases: DTP human tumour cell line panel, 48 h
HT29 colon = tested on: HT29 colon
IGROV1 ovarian = tested on: IGROV1 ovarian
CCRF-CEM leukemia = tested on: CCRF-CEM leukemia
786-0 renal = tested on: 786-0 renal
HL-60(TB) leukemia = tested on: HL-60(TB) leukemia
COLO 205 colon = tested on: COLO 205 colon
MALME-3M melanoma = tested on: MALME-3M melanoma
OVCAR-3 ovarian = tested on: OVCAR-3 ovarian
SF-539 CNS = tested on: SF-539 CNS
SK-OV-3 ovarian = tested on: SK-OV-3 ovarian
SK-MEL-2 melanoma = tested on: SK-MEL-2 melanoma
NCI-H522 lung = tested on: NCI-H522 lung
HOP-62 NSCLC = tested on: HOP-62 NSCLC
SR leukemia = tested on: SR leukemia
SK-MEL-28 melanoma = tested on: SK-MEL-28 melanoma
MDA-MB-231 breast = tested on: MDA-MB-231 breast
SN12C renal = tested on: SN12C renal
K-562 leukemia = tested on: K-562 leukemia
HS 578T breast = tested on: HS 578T breast
UACC-257 melanoma = tested on: UACC-257 melanoma
T-47D breast = tested on: T-47D breast
LOX IMVI melanoma = tested on: LOX IMVI melanoma
SW-620 colon = tested on: SW-620 colon
UACC-62 melanoma = tested on: UACC-62 melanoma
MOLT-4 leukemia = tested on: MOLT-4 leukemia
MCF7 breast = tested on: MCF7 breast
RPMI-8226 leukemia = tested on: RPMI-8226 leukemia
RXF 393 renal = tested on: RXF 393 renal
OVCAR-5 ovarian = tested on: OVCAR-5 ovarian
SNB-75 CNS = tested on: SNB-75 CNS
MDA-MB-435 = tested on: MDA-MB-435
HOP-92 NSCLC = tested on: HOP-92 NSCLC
NCI-H460 lung = tested on: NCI-H460 lung
SNB-19 CNS = tested on: SNB-19 CNS
A498 renal = tested on: A498 renal
OVCAR-8 ovarian = tested on: OVCAR-8 ovarian
UO-31 renal = tested on: UO-31 renal
SK-MEL-5 melanoma = tested on: SK-MEL-5 melanoma
CAKI-1 renal = tested on: CAKI-1 renal
BT-549 breast = tested on: BT-549 breast
U251 CNS = tested on: U251 CNS
HCT-116 colon = tested on: HCT-116 colon
HCT-15 colon = tested on: HCT-15 colon
EKVX NSCLC = tested on: EKVX NSCLC
M14 melanoma = tested on: M14 melanoma
PC-3 prostate = tested on: PC-3 prostate
TK-10 renal = tested on: TK-10 renal
A549 NSCLC = tested on: A549 NSCLC
NCI/ADR-RES ovarian = tested on: NCI/ADR-RES ovarian
DU-145 prostate = tested on: DU-145 prostate
ACHN renal = tested on: ACHN renal
HCC-2998 colon = tested on: HCC-2998 colon
SF-295 CNS = tested on: SF-295 CNS
NCI-H226 lung = tested on: NCI-H226 lung
NCI-H23 lung = tested on: NCI-H23 lung

CC[C@@]12C=CCN3CC[C@]4(c5cc(NC(=O)COc6cc(OCC(=O)Nc7cc8c(cc7OC)N(C)[C@H]7[C@@](O)(C(=O)OC)[C@H](OC(C)=O)[C@]9(CC)C=CCN%10CC[C@]87[C@@H]%109)cc7oc(-c8ccccc8)cc(=O)c67)c(OC)cc5N(C)[C@@H]4[C@](O)(C(=O)OC)[C@H]1OC(C)=O)[C@H]32
GI50 (HT29 colon): 3.42 µM
TGI (HT29 colon): > 100 µM
GI50 (IGROV1 ovarian): 1.32 µM
TGI (IGROV1 ovarian): 3.63 µM
GI50 (CCRF-CEM leukemia): 3.51 µM
TGI (CCRF-CEM leukemia): > 100 µM
GI50 (786-0 renal): 3.58 µM
TGI (786-0 renal): 14.9 µM
GI50 (HL-60(TB) leukemia): 20.4 µM
TGI (HL-60(TB) leukemia): > 100 µM
GI50 (COLO 205 colon): 3.88 µM
TGI (COLO 205 colon): 27.3 µM
GI50 (MALME-3M melanoma): > 100 µM
TGI (MALME-3M melanoma): > 100 µM
GI50 (OVCAR-3 ovarian): 2.58 µM
TGI (OVCAR-3 ovarian): 9.72 µM
GI50 (SF-539 CNS): 4.62 µM
TGI (SF-539 CNS): > 100 µM
GI50 (SK-OV-3 ovarian): 6.49 µM
TGI (SK-OV-3 ovarian): 19.7 µM
GI50 (SK-MEL-2 melanoma): 43.5 µM
TGI (SK-MEL-2 melanoma): > 100 µM
GI50 (NCI-H522 lung): 2.15 µM
TGI (NCI-H522 lung): 6.03 µM
GI50 (HOP-62 NSCLC): 3.08 µM
TGI (HOP-62 NSCLC): > 100 µM
GI50 (SR leukemia): 2.06 µM
TGI (SR leukemia): > 100 µM
GI50 (SK-MEL-28 melanoma): > 100 µM
TGI (SK-MEL-28 melanoma): > 100 µM
GI50 (MDA-MB-231 breast): 2.68 µM
TGI (MDA-MB-231 breast): 9.08 µM
GI50 (SN12C renal): 7.27 µM
TGI (SN12C renal): > 100 µM
GI50 (K-562 leukemia): 3.86 µM
TGI (K-562 leukemia): > 100 µM
GI50 (HS 578T breast): 3.63 µM
TGI (HS 578T breast): > 100 µM
GI50 (UACC-257 melanoma): > 100 µM
TGI (UACC-257 melanoma): > 100 µM
GI50 (T-47D breast): 57.5 µM
TGI (T-47D breast): > 100 µM
GI50 (LOX IMVI melanoma): 2.63 µM
TGI (LOX IMVI melanoma): 10.1 µM
GI50 (SW-620 colon): 3.89 µM
TGI (SW-620 colon): 26.2 µM
GI50 (UACC-62 melanoma): 20.1 µM
TGI (UACC-62 melanoma): 64.6 µM
GI50 (MOLT-4 leukemia): 2.79 µM
TGI (MOLT-4 leukemia): > 100 µM
GI50 (MCF7 breast): 3.25 µM
TGI (MCF7 breast): 21.7 µM
GI50 (RPMI-8226 leukemia): 3.2 µM
TGI (RPMI-8226 leukemia): > 100 µM
GI50 (RXF 393 renal): 1.58 µM
TGI (RXF 393 renal): 3.28 µM
GI50 (OVCAR-5 ovarian): 3.76 µM
TGI (OVCAR-5 ovarian): 48.2 µM
GI50 (SNB-75 CNS): 3.41 µM
TGI (SNB-75 CNS): > 100 µM
GI50 (MDA-MB-435): 17.7 µM
TGI (MDA-MB-435): > 100 µM
GI50 (HOP-92 NSCLC): 7.07 µM
TGI (HOP-92 NSCLC): 80.4 µM
GI50 (NCI-H460 lung): 2.55 µM
TGI (NCI-H460 lung): 7.15 µM
GI50 (SNB-19 CNS): 5.71 µM
TGI (SNB-19 CNS): > 100 µM
GI50 (A498 renal): 7.6 µM
TGI (A498 renal): 22.3 µM
GI50 (OVCAR-8 ovarian): 2.87 µM
TGI (OVCAR-8 ovarian): > 100 µM
GI50 (UO-31 renal): > 100 µM
TGI (UO-31 renal): > 100 µM
GI50 (SK-MEL-5 melanoma): 36.9 µM
TGI (SK-MEL-5 melanoma): > 100 µM
GI50 (CAKI-1 renal): 4.52 µM
TGI (CAKI-1 renal): > 100 µM
GI50 (BT-549 breast): 3.7 µM
TGI (BT-549 breast): > 100 µM
GI50 (U251 CNS): 3.29 µM
TGI (U251 CNS): > 100 µM
GI50 (HCT-116 colon): 1.79 µM
TGI (HCT-116 colon): 6.14 µM
GI50 (HCT-15 colon): 1.7 µM
TGI (HCT-15 colon): 12.1 µM
GI50 (EKVX NSCLC): 3.28 µM
TGI (EKVX NSCLC): > 100 µM
GI50 (M14 melanoma): 6.06 µM
TGI (M14 melanoma): 28.7 µM
GI50 (PC-3 prostate): 2.91 µM
TGI (PC-3 prostate): > 100 µM
GI50 (TK-10 renal): 12.3 µM
TGI (TK-10 renal): 61.7 µM
GI50 (A549 NSCLC): 7.14 µM
TGI (A549 NSCLC): > 100 µM
GI50 (NCI/ADR-RES ovarian): > 100 µM
TGI (NCI/ADR-RES ovarian): > 100 µM
GI50 (DU-145 prostate): 4.46 µM
TGI (DU-145 prostate): > 100 µM
GI50 (ACHN renal): > 100 µM
TGI (ACHN renal): > 100 µM
GI50 (HCC-2998 colon): 1.89 µM
TGI (HCC-2998 colon): 3.99 µM
GI50 (SF-295 CNS): 3.05 µM
TGI (SF-295 CNS): 11.9 µM
GI50 (NCI-H226 lung): 4.34 µM
TGI (NCI-H226 lung): 18 µM
GI50 (NCI-H23 lung): 2.15 µM
TGI (NCI-H23 lung): 6.58 µM

Reference: PubChem BioAssay (NCI)
